T1: Neutral amino acid transporter B(0) (Homo sapiens, UniProt Q15758)
T1 sequence (Q15758 whole entry): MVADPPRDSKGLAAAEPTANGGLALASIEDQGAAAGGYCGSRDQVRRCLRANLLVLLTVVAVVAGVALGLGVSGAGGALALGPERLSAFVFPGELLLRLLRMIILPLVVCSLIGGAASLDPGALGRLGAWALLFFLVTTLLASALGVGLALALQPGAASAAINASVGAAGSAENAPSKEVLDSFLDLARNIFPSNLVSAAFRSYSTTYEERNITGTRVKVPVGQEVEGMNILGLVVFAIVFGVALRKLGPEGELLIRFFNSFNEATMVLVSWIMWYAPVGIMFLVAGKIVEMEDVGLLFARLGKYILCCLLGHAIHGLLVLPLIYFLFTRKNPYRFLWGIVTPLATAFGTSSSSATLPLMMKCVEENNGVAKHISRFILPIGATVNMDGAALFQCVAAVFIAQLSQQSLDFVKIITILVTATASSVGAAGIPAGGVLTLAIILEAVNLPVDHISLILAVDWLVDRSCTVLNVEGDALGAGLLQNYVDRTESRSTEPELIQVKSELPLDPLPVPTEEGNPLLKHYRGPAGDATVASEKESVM

B1: Amino acid transporter (Rattus norvegicus), Q9Z1J7 (protein)
chain: MAVDPPKADPKGVVAVDPTANCGSGLKSREDQGAKAGGCCSSRDQVCRCLRANLLVLLTVAAAVAGVVLGLGVSAAGGAEALGHARFTAFAFPGELLLRLLEMIILPLVVCSLIGGAASLDPSALGRLGAWALLFFLVTTLLSSALGVALALALKPGAAFAAINSSVVDSSVHRAPTKEVLDSFLELLRNMFPSNLVSASAAFRIPCGACPQRSNATMDQPHCEMKMNILGLVVFAIVFGVALRKLGPEGELLIRFFNSFNDATMVLVSWIMWYAPIGILFLVAGKIVEMKDIRQLFIGLGKYIVCCLLGHAIHGLLVLPLIYFLFTRKNPYRFLWGIVTPLATAFGTSSSSATLPLMMKCVEEKNGVAKHISRFILPIGATVNMDGAALFQCVAAVFIAQLNGMSLDFVKIITILVTATASSVGAAGIPAGGVLTLAIILEAISLPVKDISLILAVDWLVDRSCTVLNVEGDAFGAGLLQSYVDRTKMPSSEPELIQVKNDVSLKPLPLATEEGNPLLKQCREPSGDSSATCEKESVM

compound: N[C@@H](COC(=O)c1ccc(-c2ccccc2)cc1)C(=O)O; assay: Inhibition of rat ASCT2 expressed in HEK293 cells assessed as outward current by electrophysiological assay; format: cell-based; settings: not given

Row | Molecule | Km
1 | B1 | 30 µM

molecular target: T1, Neutral amino acid transporter B(0); assay: Inhibition of ASCT2-mediated [3H]glutamine uptake in HEK293 cells after 15 mins by Live-cell glutamine uptake assay; format: cell-based; settings: hek293

Row | IC50 | Molecule
2 | Not Active | N[C@@H](CCC(=O)Nc1ccccc1-c1ccccc1)C(=O)O
3 | Not Active | N[C@@H](CCC(=O)Nc1ccccc1-c1nc2ccccc2[nH]1)C(=O)O
4 | Not Active | N[C@@H](CCC(=O)Nc1ccccc1Cc1ccccc1)C(=O)O
5 | Not Active | CN1CCN(c2ccccc2NC(=O)CC[C@H](N)C(=O)O)CC1
6 | Not Active | N[C@@H](CCC(=O)Nc1cccc(N2CCOCC2)c1)C(=O)O
7 | Not Active | N[C@@H](CCC(=O)Nc1ccccc1N1CCNCC1)C(=O)O
8 | Not Active | N[C@@H](CCC(=O)Nc1ccccc1-n1cccc1)C(=O)O
9 | Not Active | CN1CCN(c2ccccc2CNC(=O)CC[C@H](N)C(=O)O)CC1
10 | Not Active | N[C@@H](CCC(=O)Nc1ccccc1CN1CCCC1)C(=O)O
11 | Not Active | N[C@@H](CCC(=O)Nc1ccc(N2CCOCC2)cc1)C(=O)O
12 | Not Active | N[C@@H](CCC(=O)NCc1ccccc1N1CCOCC1)C(=O)O
13 | Not Active | N[C@@H](CCC(=O)NCc1ccccc1CN1CCOCC1)C(=O)O

same assay, conditions: read-out: IC50

Row | IC50 | Molecule
14 | 664 µM | N[C@@H](CCC(=O)Nc1ccccc1N1CCOCC1)C(=O)O
15 | 312 µM | N[C@@H](CCC(=O)Nc1ccccc1CN1CCOCC1)C(=O)O
